Values quoted from earlier work as cited in US4996231A, “Triyne cyclic carbonates” (Merck & Co., Inc., priority 1989, dated 1991).

Experiments:
cytosolic β-ketothiolase = conditions: initial enzyme of cholesterol biosynthesis
[1] = tested on: certain bacterial strains

C#CC#CC#CC(O)C1OC(=O)OC1CCCCCCC(=O)O (stereo not shown) [triyne carbonate A, 5-(1-hydroxy-2,4,6-heptatriynyl)-2-oxo-1,3 dioxolane 4heptanoic acid]
inhibitor of cytosolic β-ketothiolase (cytosolic β-ketothiolase): potent inhibitor
active against certain fungal strains (certain fungal strains): active against certain fungal and bacterial strains
active against certain bacterial strains [1]: active against certain fungal and bacterial strains
instability of the compound in vivo: relative instability
